According to ChEMBL document CHEMBL5518224, “Rational Design of PARP1/c-Met Dual Inhibitors for Overcoming PARP1 Inhibitor Resistance Induced by c-Met Overexpression” (J Med Chem, 2024):
Active and inactive are the calls of the source. No cut-off for these calls is given here.

Key:
[1] = biological target: T1, Hepatocyte growth factor receptor (Homo sapiens, UniProt P08581); test: Inhibition of c-Met (unknown origin) at 1 uM relative to control
[2] = biological target: Proto-oncogene tyrosine-protein kinase ROS (Homo sapiens) (UniProt P08922); test: Inhibition of ROS1 (unknown origin) at 1 uM relative to control
[3] = biological target: ALK tyrosine kinase receptor (Homo sapiens) (UniProt Q9UM73); test: Inhibition of ALK (unknown origin) at 1 uM relative to control
[4] = biological target: Poly [ADP-ribose] polymerase 1 (Homo sapiens, UniProt P09874); test: Binding affinity to PARP1 in human MDA-MB-231 cells assessed as thermal stabilization at 1 uM at 43 to 55 degreeC incubated for 12 hrs by CETSA; format: cell-based
[5] = biological target: T1, Hepatocyte growth factor receptor; test: Binding affinity to c-Met in human MDA-MB-231 cells assessed as thermal stabilization at 1 uM at 43 to 55 degreeC incubated for 12 hrs by CETSA; format: cell-based
[6] = test system: MDA-MB-231; test: Effect on PARP1 protein expression in human MDA-MB-231 cells with H2O2-induced oxidative stress at 0.5 uM incubated for 72 hrs by Western blot analysis; format: functional, cell-based
[7] = test system: MDA-MB-231; test: Effect on c-MET protein expression in human MDA-MB-231 cells with H2O2-induced oxidative stress at 0.5 uM incubated for 72 hrs by Western blot analysis; format: functional, cell-based
[8] = test system: MDA-MB-231; test: Effect on PARP1 […] in human MDA-MB-231 cells with H2O2-induced oxidative stress at 0.5 uM by RT-qPCR analysis; format: functional, cell-based
[9] = test system: MDA-MB-231; test: Effect on c-MET […] in human MDA-MB-231 cells with H2O2-induced oxidative stress at 0.5 uM by RT-qPCR analysis; format: functional, cell-based
[10] = test system: MDA-MB-231; test: Downregulation of PAR protein level in human MDA-MB-231 cells with H2O2-induced oxidative stress at 0.5 uM incubated for 72 hrs by Western blot analysis; format: functional, cell-based
[11] = test system: MDA-MB-231; test: Downregulation of PAR mRNA level in human MDA-MB-231 cells with H2O2-induced oxidative stress at 0.5 uM by RT-qPCR analysis; format: functional, cell-based
[12] = test system: MDA-MB-231; test: Downregulation of phosphorylated c-MET protein level in human MDA-MB-231 cells with H2O2-induced oxidative stress at 0.5 uM incubated for 72 hrs by Western blot analysis; format: functional, cell-based
[13] = test system: MDA-MB-231; test: Downregulation of phosphorylated c-MET mRNA level in human MDA-MB-231 cells with H2O2-induced oxidative stress at 0.5 uM by RT-qPCR analysis; format: functional, cell-based
[14] = test system: MDA-MB-231; test: Downregulation of phosphorylated AKT level in human MDA-MB-231 cells with H2O2-induced oxidative stress at 0.5 uM incubated for 72 hrs by Western blot analysis; format: functional, cell-based
[15] = test system: MDA-MB-231; test: Downregulation of phosphorylated AKT level in human MDA-MB-231 cells with H2O2-induced oxidative stress at 0.5 uM […]; format: functional, cell-based
[16] = test system: MDA-MB-231; test: Induction of DNA damage in human MDA-MB-231 cells assessed as increase in gammaH2AX protein level at 0.5 uM incubated for 72 hrs by Western blot analysis; format: functional, cell-based
[17] = test system: MDA-MB-231; test: Induction of DNA damage in human MDA-MB-231 cells assessed as increase in gammaH2AX […] analysis; format: functional, cell-based
[18] = test system: MDA-MB-231; test: Induction of DNA damage in human MDA-MB-231 cells assessed as increase in tail DNA at 0.5 uM incubated for 72 hrs by comet assay; format: functional, cell-based
[19] = test system: MDA-MB-231; test: Induction of DNA damage in human MDA-MB-231 cells assessed as increase in gammaH2AX expression at 0.5 to 1 uM incubated for 3 days by immunofluorescence based laser confocal microscopic analysis; format: functional, cell-based; details: dose 0.5-1 µM, time 3.0 day
[20] = test system: MDA-MB-231; test: Inhibition of PARP1/c-Met protein-protein interaction in H2O2 stimulated human MDA-MB-231 cells at 0.5 uM incubated for 72 hrs by proximity ligation assay; format: cell-based
[21] = test system: MDA-MB-231; test: Effect on homologous recombination in human MDA-MB-231 cells assessed as reduction in BRCA1 protein level by measuring disruption of BRCA1-BRCA2-Rad51 complex formation at 0.5 uM incubated for 72 hrs by Western blot analysis; format: functional, cell-based
[22] = test system: MDA-MB-231; test: Effect on homologous recombination in human MDA-MB-231 cells assessed as reduction in BRCA1 mRNA level by measuring disruption of BRCA1-BRCA2-Rad51 complex formation at 0.5 uM by RT-qPCR analysis; format: functional, cell-based
[23] = test system: MDA-MB-231; test: Effect on homologous recombination in human MDA-MB-231 cells assessed as reduction in Rad51 protein level by measuring disruption of BRCA1-BRCA2-Rad51 complex formation at 0.5 uM incubated for 72 hrs by Western blot analysis; format: functional, cell-based
[24] = test system: MDA-MB-231; test: Effect on homologous recombination in human MDA-MB-231 cells assessed as reduction in Rad51 mRNA level by measuring disruption of BRCA1-BRCA2-Rad51 complex formation at 0.5 uM by RT-qPCR analysis; format: functional, cell-based
[25] = test system: MDA-MB-231; test: Effect on BRCA2 protein level in human MDA-MB-231 cells at 0.5 uM incubated for 72 hrs by Western blot analysis; format: functional, cell-based
[26] = test system: MDA-MB-231; test: Effect on BRCA2 mRNA level in human MDA-MB-231 cells at 0.5 uM by RT-qPCR analysis; format: functional, cell-based
[27] = test system: MDA-MB-231; test: Effect on homologous recombination in human MDA-MB-231 cells assessed as reduction in Rad51 nuclear level at 0.5 to 1 uM incubated for 72 hrs by immunofluorescence analysis; format: functional, cell-based; details: dose 0.5-1 µM
[28] = test system: MDA-MB-231; test: Effect on homologous recombination in human MDA-MB-231 cells assessed as reduction in BRCA2-Rad51 complex formation at 0.5 uM incubated for 72 hrs by proximity ligation assay; format: functional, cell-based
[29] = test system: MDA-MB-231; test: Antiproliferative activity against human MDA-MB-231 cells assessed as inhibition of cell growth assessed as reduction in colony formation at 0.5 to 1 uM incubated for 14 days by crystal violet staining based microscopic analysis; format: functional; details: dose 0.5-1 µM, time 14.0 day
[30] = test system: MDA-MB-231; test: Induction of G2/M phase cell cycle arrest in human MDA-MB-231 cells at 0.5 to 1 uM incubated for 4 days by PI staining based flow cytometry analysis; format: functional; details: dose 0.5-1 µM, time 4.0 day
[31] = test system: MDA-MB-231; test: Antitumor activity against human MDA-MB-231 cells xenografted in female Balb/c nude mouse assessed as reduction in tumor weight at 12.5 to 50 mg/kg/day, ip qd administered for 28 days; format: functional, organism-based; details: dose 12.5-50 mg/kg/day, time 28.0 day
[32] = test system: Olaparib-resistant HCT116; test: Antitumor activity against human Olaparib-resistant HCT116 cells xenografted in female Balb/c nude mouse assessed as reduction in tumor weight at 5 mg/kg/day, iv qd administered for 21 days; format: functional, organism-based; details: time 21.0 day
[33] = test system: Olaparib-resistant HCT116; test: Antitumor activity against human Olaparib-resistant HCT116 cells xenografted in female Balb/c nude mouse assessed as reduction in tumor weight at 25 to 100 mg/kg/day, ip qd administered for 21 days; format: functional, organism-based; details: dose 25-100 mg/kg/day, time 21.0 day
[34] = test system: MDA-MB-231; test: Antitumor activity against human MDA-MB-231 cells xenografted in female Balb/c nude mouse assessed as reduction in BRCA1 expression in tumor at 50 mg/kg/day, ip qd administered for 28 days by immunohistochemistry analysis; format: functional, organism-based; details: time 28.0 day
[35] = test system: MDA-MB-231; test: Antitumor activity against human MDA-MB-231 cells xenografted in female Balb/c nude mouse assessed as reduction in Ki67 expression in tumor at 50 mg/kg/day, ip qd administered for 28 days by immunohistochemistry analysis; format: functional, organism-based; details: time 28.0 day
[36] = test system: MDA-MB-231; test: Antitumor activity against human MDA-MB-231 cells xenografted in female Balb/c nude mouse assessed as induction of DNA damage by measuring increase in gammaH2AX expression in tumor at 50 mg/kg/day, ip qd administered for 28 days by immunohistochemistry analysis; format: functional, organism-based; details: time 28.0 day
[37] = test system: MDA-MB-231; test: Antitumor activity against human MDA-MB-231 cells xenografted in female Balb/c nude mouse assessed as induction of apoptosis by measuring upregulation of cleaved caspase-3 expression in tumor at 50 mg/kg/day, ip qd administered for 28 days by immunohistochemistry analysis; format: functional, organism-based; details: time 28.0 day

T1 sequence (P08581 whole entry): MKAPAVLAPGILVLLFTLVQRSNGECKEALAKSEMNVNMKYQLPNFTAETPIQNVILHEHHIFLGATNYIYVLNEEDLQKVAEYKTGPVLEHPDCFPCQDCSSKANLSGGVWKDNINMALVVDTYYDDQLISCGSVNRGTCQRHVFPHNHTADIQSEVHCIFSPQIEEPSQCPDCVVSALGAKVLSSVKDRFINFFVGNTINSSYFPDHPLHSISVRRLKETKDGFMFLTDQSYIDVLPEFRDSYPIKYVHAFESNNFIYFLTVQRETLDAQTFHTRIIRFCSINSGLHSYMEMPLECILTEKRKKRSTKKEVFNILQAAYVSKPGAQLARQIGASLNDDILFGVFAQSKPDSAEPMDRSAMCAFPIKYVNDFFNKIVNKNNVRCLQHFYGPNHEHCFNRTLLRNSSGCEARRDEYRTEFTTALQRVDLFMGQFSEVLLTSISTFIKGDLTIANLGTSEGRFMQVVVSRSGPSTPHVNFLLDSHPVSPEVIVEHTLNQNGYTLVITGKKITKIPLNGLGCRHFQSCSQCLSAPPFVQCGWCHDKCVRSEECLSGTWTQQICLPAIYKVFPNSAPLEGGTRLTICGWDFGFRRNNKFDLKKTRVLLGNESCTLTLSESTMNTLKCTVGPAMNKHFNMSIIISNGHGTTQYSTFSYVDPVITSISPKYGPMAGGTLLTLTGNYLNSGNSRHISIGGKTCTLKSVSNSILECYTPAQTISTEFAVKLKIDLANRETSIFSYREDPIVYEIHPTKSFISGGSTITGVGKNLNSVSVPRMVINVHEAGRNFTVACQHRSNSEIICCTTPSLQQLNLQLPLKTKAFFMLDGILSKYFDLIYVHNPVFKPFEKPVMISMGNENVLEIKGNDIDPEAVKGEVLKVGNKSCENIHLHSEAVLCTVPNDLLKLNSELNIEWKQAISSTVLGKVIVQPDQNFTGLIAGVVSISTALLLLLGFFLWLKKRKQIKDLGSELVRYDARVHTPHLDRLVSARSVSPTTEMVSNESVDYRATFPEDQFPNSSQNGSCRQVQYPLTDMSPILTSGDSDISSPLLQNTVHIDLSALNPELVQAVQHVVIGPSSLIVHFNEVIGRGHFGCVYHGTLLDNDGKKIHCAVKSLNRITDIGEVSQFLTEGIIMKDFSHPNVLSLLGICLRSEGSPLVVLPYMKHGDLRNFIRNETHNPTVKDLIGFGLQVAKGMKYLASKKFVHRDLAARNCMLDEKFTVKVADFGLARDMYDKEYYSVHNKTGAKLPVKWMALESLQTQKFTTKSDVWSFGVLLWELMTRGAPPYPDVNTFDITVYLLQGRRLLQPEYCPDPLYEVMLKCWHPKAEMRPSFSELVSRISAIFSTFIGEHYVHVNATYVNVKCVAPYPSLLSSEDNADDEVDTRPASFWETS
Sequence of ALK tyrosine kinase receptor (Homo sapiens) (Q9UM73 19-1620 limits assumed): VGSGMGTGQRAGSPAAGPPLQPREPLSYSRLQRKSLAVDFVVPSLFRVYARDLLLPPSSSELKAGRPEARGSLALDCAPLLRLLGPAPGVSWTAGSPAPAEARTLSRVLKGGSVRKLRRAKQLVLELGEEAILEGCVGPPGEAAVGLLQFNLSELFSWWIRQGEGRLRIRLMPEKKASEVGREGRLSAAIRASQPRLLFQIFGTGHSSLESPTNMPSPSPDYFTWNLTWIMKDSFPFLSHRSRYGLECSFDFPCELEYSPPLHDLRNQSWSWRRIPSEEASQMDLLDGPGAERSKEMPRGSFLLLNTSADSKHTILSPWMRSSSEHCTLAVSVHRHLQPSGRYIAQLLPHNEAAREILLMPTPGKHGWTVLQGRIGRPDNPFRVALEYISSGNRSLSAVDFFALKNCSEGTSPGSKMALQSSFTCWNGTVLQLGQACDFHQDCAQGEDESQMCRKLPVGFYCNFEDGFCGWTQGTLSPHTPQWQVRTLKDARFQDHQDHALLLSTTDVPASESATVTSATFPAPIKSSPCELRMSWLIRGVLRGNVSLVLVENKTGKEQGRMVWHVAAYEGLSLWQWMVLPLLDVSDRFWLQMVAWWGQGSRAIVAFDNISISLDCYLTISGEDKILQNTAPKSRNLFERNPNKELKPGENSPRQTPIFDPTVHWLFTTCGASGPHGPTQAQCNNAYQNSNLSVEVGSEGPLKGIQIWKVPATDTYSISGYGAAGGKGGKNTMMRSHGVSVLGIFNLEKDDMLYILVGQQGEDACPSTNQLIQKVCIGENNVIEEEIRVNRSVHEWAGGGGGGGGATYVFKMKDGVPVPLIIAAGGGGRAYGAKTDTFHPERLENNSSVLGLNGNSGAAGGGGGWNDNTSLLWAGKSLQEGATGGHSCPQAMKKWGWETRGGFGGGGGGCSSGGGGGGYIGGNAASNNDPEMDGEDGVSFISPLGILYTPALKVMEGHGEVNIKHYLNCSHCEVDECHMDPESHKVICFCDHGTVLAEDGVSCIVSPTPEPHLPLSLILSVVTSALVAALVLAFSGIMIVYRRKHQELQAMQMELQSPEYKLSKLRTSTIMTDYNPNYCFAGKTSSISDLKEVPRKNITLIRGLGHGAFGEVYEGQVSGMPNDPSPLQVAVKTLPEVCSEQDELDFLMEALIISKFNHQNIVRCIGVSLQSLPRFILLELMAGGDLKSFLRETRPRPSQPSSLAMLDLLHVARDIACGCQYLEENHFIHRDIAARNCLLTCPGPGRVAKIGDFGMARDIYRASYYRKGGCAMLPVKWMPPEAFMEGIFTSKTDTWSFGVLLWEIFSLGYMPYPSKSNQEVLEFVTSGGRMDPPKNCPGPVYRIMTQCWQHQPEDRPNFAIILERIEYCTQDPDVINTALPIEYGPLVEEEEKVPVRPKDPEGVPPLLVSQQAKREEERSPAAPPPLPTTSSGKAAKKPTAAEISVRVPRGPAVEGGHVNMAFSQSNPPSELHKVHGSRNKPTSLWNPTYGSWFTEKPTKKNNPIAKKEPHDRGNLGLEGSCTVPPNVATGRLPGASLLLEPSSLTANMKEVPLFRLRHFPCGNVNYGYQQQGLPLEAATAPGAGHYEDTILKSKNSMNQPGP
Sequence of Poly [ADP-ribose] polymerase 1 (P09874 whole entry): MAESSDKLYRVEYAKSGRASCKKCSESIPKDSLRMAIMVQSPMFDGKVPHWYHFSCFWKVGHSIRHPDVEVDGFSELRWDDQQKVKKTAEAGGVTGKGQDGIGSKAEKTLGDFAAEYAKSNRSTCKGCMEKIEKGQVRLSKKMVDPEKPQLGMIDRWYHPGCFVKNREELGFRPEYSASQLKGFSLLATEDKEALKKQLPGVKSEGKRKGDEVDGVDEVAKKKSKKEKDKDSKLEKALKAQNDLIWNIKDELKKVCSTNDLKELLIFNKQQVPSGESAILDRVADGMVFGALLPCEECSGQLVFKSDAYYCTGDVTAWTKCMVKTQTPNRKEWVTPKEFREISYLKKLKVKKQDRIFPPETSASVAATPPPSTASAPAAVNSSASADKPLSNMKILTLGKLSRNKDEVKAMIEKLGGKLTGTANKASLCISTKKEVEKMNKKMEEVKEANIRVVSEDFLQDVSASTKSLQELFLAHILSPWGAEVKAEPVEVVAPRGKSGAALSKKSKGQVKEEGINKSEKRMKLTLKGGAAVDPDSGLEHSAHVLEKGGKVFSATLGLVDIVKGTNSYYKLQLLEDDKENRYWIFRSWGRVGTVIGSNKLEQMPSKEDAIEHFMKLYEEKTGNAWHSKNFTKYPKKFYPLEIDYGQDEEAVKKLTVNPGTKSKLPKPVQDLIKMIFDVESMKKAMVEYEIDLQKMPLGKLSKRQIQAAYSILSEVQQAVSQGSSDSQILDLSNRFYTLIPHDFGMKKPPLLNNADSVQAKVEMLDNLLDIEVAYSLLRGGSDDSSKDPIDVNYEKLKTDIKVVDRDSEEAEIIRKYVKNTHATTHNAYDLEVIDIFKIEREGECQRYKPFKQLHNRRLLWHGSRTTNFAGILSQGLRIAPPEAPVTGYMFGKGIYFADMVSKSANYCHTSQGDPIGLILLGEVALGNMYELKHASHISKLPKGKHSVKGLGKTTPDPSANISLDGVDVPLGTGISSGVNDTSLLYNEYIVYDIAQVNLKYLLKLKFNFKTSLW

**Q.** What does the source list for `O=C(c1cc(Cc2n[nH]c(=O)c3ccccc23)ccc1F)N1CCN(c2ccc3c(OCCn4nc(-c5cccnc5)ccc4=O)ccnc3c2)CC1`?
**A.** inhibition [1]: 98.3%; inhibition [2]: 63%; inhibition [3]: 60.3%; Activity [4]: Active; Activity [5]: Active; Activity [6]: inactive; Activity [7]: inactive; Activity [8]: inactive; Activity [9]: inactive; Activity [10]: Active; Activity [11]: Active; Activity [12]: Active; Activity [13]: Active; Activity [14]: Active; Activity [15]: Active; Activity [16]: Active; Activity [17]: Active; Activity [18]: Active; Activity [19]: Active; inhibition [20]: Active; Activity [21]: Active; Activity [22]: Active; Activity [23]: Active; Activity [24]: Active; Activity [25]: inactive; Activity [26]: inactive; Activity [27]: Active; Activity [28]: Active; Activity [29]: Active; Activity [30]: Active; Activity [31]: Active; Activity [32]: Active; Activity [33]: Active; Activity [34]: Active; Activity [35]: Active; Activity [36]: Active; Activity [37]: Active
